Measurements reported in patent US12721809B2, “Formulation for treating ophthalmic conditions” (Guangzhou KangRui Biological Pharmaceutical Technology Co., …, priority 2021, dated 2026).
Values after ≈ are worked out from the molar mass of the structure shown. Values joined by “and” are separate entries in the source; they are usually repeats but may differ in a detail not shown here. Identical values can stand only once.

Assays:
Type in all cases: physicochemical
[1] = Solubility of KDR2-2 in different media
[2] = Particle size of KDR2-2 API before and after pulverization (Malvern); conditions: for Particle size Dv (10) / Particle size Dv (50) / Particle size Dv (90): dry method (Mastersizer 3000); for D10 (μm) / D50 (μm) / D90 (μm): listed as KDR2-2 API
Protocol: Particle sizes: KDR2-2 is a poorly soluble drug with large particle sizes. The drug substance should be micronized to meet the quality standards of KDR2-2 Suspension Eye Drop. The result of microscopic observation of KDR2-2 (Batch #CK0120554-02-03P-01-32-01) in 1% Kolliphor® HS 15 is shown in FIG. 1, and the particle sizes of KDR2-2 (Batch #CK0120554-02-03P-01-32-01) in 1% Kolliphor® HS 15 were measured by malvern and is presented in Table 4.
(§1) The drug particle size for suspension eye drops should be reduced to level <10 μm in an attempt to avoid excessive lacrimation, the micronization process of drug substance was studied. The micronization process parameters of the jet are: injection pressure is 5 bar; crushing pressure is 3 bar. The particle size and distribution of the KDR2-2 API were measured before and after pulverization, to determine whether the API satisfies the formulation requirements after pulverization.
as §1, with “studied. Certain amount of KDR2-2 API was taken and fed into a jet mill.” for “studied.”, “bar; the media for micronization is air.” for “bar.”, “was” for “were”, “pulverization using the dry method (Mastersizer 3000, Malvern),” for “pulverization,”

[3] = API content/purity by liquid chromatography before and after pulverization; conditions: for HPLC peak (percentage of peak area), Impurity 1: Impurity 1 = Intermediate A; for HPLC peak (percentage of peak area), Impurity 2: Impurity 2 = Intermediate B
Protocol: API content was determined by liquid chromatography, Diamonsil® plus-C18 column (4.6×150 mm, […]), mobile phase: acetonitrile (with 0.2‰ trifluoroacetic acid):water (with 0.2‰ trifluoroacetic acid), acetonitrile gradient 5-95%, time: 17 min, column temperature 20° C., detection wavelength 254 nm. The results are shown as follows and in FIGS. 5A-5B: […]

[4] = KDR2-2 API after micronization (jet mill)
[5] = KDR2-2 API before micronization
[6] = after pulverization (jet mill, 5 bar/3 bar)
[7] = before pulverization, in 1% Kolliphor® HS 15, batch CK0120554-02-03P-01-32-01

Compound: Nc1nccc(Oc2ccc3c(C(=O)Nc4cccc(C(F)(F)F)c4)cccc3n2)n1 [KDR2-2, 2-(2-Aminopyrimidin-4-yloxy)-N-(3-(trifluoromethyl)phenyl)quinoline-5-carboxamide]
- solubility ([1]; acetone, organic solvent or mixture): 7700 to 11500 µg/mL (≈ 18.1 to 27 mM)
- solubility ([1]; acetone/water, aqueous with cosolvent or surfactant or cyclodextrin): 7300 to 11000 µg/mL (≈ 17.2 to 25.9 mM)
- solubility ([1]; acetonitrile, organic solvent or mixture): 1700 to 1900 µg/mL (≈ 4 to 4.47 mM)
- solubility ([1]; chloroform, organic solvent or mixture): < 1100 µg/mL
- solubility ([1]; dimethylsulfoxide, organic solvent or mixture): > 28000 µg/mL
- solubility ([1]; ethanol, organic solvent or mixture): 2400 to 2700 µg/mL (≈ 5.64 to 6.35 mM)
- solubility ([1]; ethyl acetate, organic solvent or mixture): 3800 to 4600 µg/mL (≈ 8.93 to 10.8 mM)
- solubility ([1]; iso-propyl alcohol, organic solvent or mixture): < 1100 µg/mL
- solubility ([1]; methanol, organic solvent or mixture): 6300 to 9500 µg/mL (≈ 14.8 to 22.3 mM)
- solubility ([1]; methyl isobutyl ketone, organic solvent or mixture): 1800 to 2200 µg/mL (≈ 4.23 to 5.17 mM)
- solubility ([1]; methyl tert-butyl ether, organic solvent or mixture): < 1200 µg/mL
- solubility ([1]; tetrahydrofuran, organic solvent or mixture): > 18000 µg/mL
- solubility ([1]; toluene, organic solvent or mixture): < 900 µg/mL
- solubility ([1]; water): < 1100 µg/mL
- Particle size Dv (10) [2, 4]: 0.304 μm
- Particle size Dv (50) [2, 4]: 1.75 μm
- Particle size Dv (90) [2, 4]: 3.83 μm
- Particle size Dv (10) [2, 5]: 2.33 μm
- Particle size Dv (50) [2, 5]: 10.5 μm
- Particle size Dv (90) [2, 5]: 472 μm
- D10 (μm) [2, 6]: 0.957 μm and 0.949 μm and 0.946 μm
- D50 (μm) [2, 6]: 3.55 μm and 3.46 μm and 3.41 μm
- D90 (μm) [2, 6]: 8.03 μm and 7.59 μm and 7.47 μm
- D10 (μm) [2, 7]: 55.9 μm and 33.0 μm and 45.5 μm
- D50 (μm) [2, 7]: 162 μm and 105 μm and 138 μm
- D90 (μm) [2, 7]: 375 μm and 292 μm and 353 μm
- HPLC peak (percentage of peak area), KDR2-2 ([3]; KDR2-2 API after micronization): Peak area % = 99.839%
- HPLC peak (percentage of peak area), Impurity 1 ([3]; KDR2-2 API after micronization): Peak area % = 0.085%
- HPLC peak (percentage of peak area), Impurity 2 ([3]; KDR2-2 API after micronization): Peak area % = 0.075%
- HPLC peak (percentage of peak area), KDR2-2 [3, 5]: Peak area % = 99.820%
- HPLC peak (percentage of peak area), Impurity 1 [3, 5]: Peak area % = 0.08%
- HPLC peak (percentage of peak area), Impurity 2 [3, 5]: Peak area % = 0.101%
